Results on one compound are retold here after ChEMBL document CHEMBL4033684, “Development of nonsteroidal glucocorticoid receptor modulators based on N-benzyl-N-(4-phenoxyphenyl)benzenesulfonamide scaffold” (Bioorg Med Chem, 2017).

Type in all cases: cell-based
Series [1] concerns the target T1, Androgen receptor (Homo sapiens) (UniProt P10275).
T1 sequence (whole entry): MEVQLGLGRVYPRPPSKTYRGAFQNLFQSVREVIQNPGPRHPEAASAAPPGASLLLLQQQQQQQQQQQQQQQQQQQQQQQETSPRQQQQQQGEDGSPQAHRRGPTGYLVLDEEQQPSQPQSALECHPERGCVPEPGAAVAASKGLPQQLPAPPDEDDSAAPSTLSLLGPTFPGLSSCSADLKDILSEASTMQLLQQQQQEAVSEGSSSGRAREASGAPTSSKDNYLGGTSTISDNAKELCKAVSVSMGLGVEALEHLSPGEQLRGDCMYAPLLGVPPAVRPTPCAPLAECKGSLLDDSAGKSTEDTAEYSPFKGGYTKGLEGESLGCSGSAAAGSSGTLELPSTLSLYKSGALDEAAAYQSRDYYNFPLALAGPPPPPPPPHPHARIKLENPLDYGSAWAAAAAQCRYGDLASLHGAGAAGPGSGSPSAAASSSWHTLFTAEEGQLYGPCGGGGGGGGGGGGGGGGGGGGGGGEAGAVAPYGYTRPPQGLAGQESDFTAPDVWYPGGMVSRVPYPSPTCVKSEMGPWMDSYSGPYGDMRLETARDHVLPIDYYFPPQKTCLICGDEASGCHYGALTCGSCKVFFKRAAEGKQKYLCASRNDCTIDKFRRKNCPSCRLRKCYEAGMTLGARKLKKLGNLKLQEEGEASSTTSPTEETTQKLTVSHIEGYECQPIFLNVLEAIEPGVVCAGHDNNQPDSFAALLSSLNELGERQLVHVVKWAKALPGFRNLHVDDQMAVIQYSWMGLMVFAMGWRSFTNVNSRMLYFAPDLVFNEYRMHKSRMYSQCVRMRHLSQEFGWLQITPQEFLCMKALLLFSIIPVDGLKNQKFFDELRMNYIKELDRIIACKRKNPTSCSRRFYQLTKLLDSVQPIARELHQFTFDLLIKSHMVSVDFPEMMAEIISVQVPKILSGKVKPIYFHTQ
The series can be described thus: Antagonist activity at human AR expressed in HEK293 cells at 30 uM after 24 hrs by luciferase reporter gene assay. A general note: Reporter assays use an easily measured gene product as a stand-in for the process of interest.

Series [2] has as its target T2, Glucocorticoid receptor (Homo sapiens) (UniProt P04150).
T2 sequence (whole entry): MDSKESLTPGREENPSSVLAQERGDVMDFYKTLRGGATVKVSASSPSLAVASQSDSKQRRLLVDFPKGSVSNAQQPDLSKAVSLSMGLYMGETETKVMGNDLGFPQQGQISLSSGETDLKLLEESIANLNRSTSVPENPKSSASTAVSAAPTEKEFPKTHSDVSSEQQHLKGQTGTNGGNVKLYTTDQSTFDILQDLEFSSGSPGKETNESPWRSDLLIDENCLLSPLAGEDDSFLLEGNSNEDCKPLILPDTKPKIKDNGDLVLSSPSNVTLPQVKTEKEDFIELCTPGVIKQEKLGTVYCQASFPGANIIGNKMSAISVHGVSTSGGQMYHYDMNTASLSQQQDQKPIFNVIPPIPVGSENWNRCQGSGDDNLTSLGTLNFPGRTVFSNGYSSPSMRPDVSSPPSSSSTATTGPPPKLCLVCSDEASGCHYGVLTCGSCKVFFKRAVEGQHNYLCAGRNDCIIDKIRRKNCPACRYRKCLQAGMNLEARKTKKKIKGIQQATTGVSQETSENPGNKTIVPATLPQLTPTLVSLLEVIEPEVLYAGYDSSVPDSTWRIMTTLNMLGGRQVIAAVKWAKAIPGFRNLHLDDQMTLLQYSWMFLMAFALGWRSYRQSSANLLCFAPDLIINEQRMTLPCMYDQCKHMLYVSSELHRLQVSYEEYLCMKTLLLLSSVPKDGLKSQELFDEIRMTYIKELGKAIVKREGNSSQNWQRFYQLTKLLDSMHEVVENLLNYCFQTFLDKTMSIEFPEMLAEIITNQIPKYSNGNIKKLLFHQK
The series is described as follows: Transrepression of human GRalpha expressed in HEK293 cells co-expressing pGL4.32 assessed as inhibition of TNFalpha-stimulated NF-kB activity at 30 uM preincubated for 4 hrs followed by TNFalpha addition measured after 3 hrs by luciferase reporter gene assay relative to control.

Series [3] has as its target T3, Glucocorticoid receptor (Homo sapiens, UniProt P04150).
T3 sequence (P04150 whole entry): T2 sequence (whole entry)
The series is described as follows: Antagonist activity at human GRalpha expressed in HEK293 cells assessed as inhibition of dexamethasone-induced response after 24 hrs by luciferase reporter gene assay.

Series [4] addresses T4, Estrogen receptor (Homo sapiens) (UniProt P03372).
T4 sequence (whole entry): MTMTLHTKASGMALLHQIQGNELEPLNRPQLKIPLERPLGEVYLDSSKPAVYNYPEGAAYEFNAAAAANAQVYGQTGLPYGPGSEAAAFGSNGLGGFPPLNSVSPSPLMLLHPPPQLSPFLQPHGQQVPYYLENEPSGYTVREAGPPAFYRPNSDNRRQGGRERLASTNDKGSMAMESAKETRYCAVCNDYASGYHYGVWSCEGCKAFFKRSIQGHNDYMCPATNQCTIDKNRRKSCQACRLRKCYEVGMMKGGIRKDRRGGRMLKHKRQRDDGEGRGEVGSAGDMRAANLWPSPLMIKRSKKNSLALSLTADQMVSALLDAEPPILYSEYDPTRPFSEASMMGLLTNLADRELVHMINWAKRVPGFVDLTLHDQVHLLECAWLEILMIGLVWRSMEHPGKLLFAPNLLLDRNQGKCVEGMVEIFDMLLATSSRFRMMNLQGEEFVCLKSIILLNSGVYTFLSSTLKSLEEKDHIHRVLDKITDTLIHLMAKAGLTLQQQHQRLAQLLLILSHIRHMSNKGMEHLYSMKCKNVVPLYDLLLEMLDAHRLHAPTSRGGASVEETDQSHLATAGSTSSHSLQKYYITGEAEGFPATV
The series can be described thus: Antagonist activity at human GAL4-fused ERalpha LBD expressed in HEK293 cells at 30 uM after 24 hrs by luciferase reporter gene assay.

Series [5] deals with Estrogen receptor beta (Homo sapiens) (UniProt Q92731). The series can be described thus: Antagonist activity at human GAL4-fused ERbeta LBD expressed in HEK293 cells at 30 uM after 24 hrs by luciferase reporter gene assay.
The next series addresses T5, Progesterone receptor (Homo sapiens, UniProt P06401).
T5 sequence (P06401 whole entry): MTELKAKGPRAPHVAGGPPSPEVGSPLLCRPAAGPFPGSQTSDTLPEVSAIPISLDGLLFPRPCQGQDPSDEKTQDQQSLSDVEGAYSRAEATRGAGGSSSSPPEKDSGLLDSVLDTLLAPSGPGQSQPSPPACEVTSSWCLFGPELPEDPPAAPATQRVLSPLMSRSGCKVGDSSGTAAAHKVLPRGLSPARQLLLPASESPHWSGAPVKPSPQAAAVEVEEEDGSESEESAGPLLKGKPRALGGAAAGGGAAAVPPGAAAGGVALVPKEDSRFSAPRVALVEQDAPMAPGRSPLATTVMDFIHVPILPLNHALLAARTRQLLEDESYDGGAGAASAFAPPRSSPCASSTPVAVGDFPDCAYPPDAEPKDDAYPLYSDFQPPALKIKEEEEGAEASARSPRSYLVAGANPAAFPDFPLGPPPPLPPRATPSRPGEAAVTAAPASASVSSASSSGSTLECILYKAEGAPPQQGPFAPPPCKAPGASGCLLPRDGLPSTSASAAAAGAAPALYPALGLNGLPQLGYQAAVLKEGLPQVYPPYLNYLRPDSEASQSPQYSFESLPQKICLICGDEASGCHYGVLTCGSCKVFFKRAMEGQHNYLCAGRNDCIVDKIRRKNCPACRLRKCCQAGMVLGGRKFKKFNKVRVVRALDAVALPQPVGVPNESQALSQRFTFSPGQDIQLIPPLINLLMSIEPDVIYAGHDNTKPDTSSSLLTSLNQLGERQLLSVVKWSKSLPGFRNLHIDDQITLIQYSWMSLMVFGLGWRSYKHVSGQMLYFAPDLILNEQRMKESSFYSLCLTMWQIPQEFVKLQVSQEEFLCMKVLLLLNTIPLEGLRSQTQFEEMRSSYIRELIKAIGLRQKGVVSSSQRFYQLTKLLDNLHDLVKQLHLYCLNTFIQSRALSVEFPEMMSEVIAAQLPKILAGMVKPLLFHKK
The series is described as follows: Antagonist activity at PR in human T47D cells assessed as inhibition of progesterone-induced response after 24 hrs by alkaline phosphatase assay.

Series [6] addresses T3, Glucocorticoid receptor. The series can be described thus: Transactivation of human GRalpha expressed in HEK293 cells after 24 hrs by luciferase reporter gene assay. The settings on record: hek293, 24 h.

Structures are written as SMILES. Activity calls are given as the source filed them. The rule behind the calls is not given here.

Sequence of Estrogen receptor beta (Homo sapiens) (Q92731 whole entry, the tested form may be a part): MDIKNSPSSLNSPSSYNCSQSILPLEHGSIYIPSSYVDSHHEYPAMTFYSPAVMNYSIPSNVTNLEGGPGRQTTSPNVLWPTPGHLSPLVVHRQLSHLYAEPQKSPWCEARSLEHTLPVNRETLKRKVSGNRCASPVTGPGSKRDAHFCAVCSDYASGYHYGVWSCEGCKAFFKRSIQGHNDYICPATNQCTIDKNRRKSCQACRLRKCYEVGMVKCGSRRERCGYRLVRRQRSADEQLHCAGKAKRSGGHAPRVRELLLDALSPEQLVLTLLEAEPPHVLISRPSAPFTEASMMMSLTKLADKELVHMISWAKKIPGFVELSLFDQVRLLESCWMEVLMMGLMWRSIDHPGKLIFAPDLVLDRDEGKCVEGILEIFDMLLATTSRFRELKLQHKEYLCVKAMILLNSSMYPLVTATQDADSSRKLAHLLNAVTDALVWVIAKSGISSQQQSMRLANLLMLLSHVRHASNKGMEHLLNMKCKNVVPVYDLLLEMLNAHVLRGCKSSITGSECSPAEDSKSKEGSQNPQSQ

In general, IC50 refers to the point on the concentration scale where inhibition reaches its midpoint. For `N#Cc1ccc(S(=O)(=O)N(Cc2ccccc2)c2ccc(Oc3ccccc3)cc2)cc1`, the inhibition result in series [1], in series [2], in series [4] and in series [5] was “inactive” throughout. In addition, the IC50 at Glucocorticoid receptor [3] is 1.43 µM; at Progesterone receptor, 8 µM. For the same compound, the Activity entry at Glucocorticoid receptor [6] was “Not Active”.
